Results as given in ChEMBL document CHEMBL3286107, “Synthesis of C,N'-linked bis-heterocycles using a deprotometalation-iodination-N-arylation sequence and evaluation of their antiproliferative activity in melanoma cells” (Bioorg Med Chem, 2014).
The source made the active and inactive calls. No cut-off for these calls is given here.

What was measured:
A2058 [1] = experiment: Antiproliferative activity against human A2058 cells assessed as inhibition of cell growth after 72 hrs by MTT assay; format: functional, cell-based; conditions: A2058, 72 h
A2058 [2] = experiment: Growth inhibition of human A2058 cells at 10 uM after 72 hrs by MTT assay; format: functional

SMILES | IC50 (A2058 [1]) [µM] | inhibition of growth at 10 µM (A2058 [2]; A2058, 72 h, read-out: GI) [%] | growth inhibition (GI) (A2058 [2])
c1ccc2oc(-n3ccnc3)nc2c1 | 7.1 | 84.3 | 
c1ccc2oc(-n3cnc4ccccc43)nc2c1 |  |  | Active
c1ccc2sc(-n3cnc4ccccc43)cc2c1 |  |  | Active
c1ccc2sc(-n3cnc4ccccc43)nc2c1 |  |  | Active
c1ccc2oc(-n3cnc4ccccc43)cc2c1 |  |  | Active
